Results published in patent publication US5370997A, “Hyperthermostable alpha-amylase” (Novo Nordisk A/S, priority 1989, dated 1994).

Tests used:
[1] = target: α-amylase from Pyrococcus woesei (partially purified) (Pyrococcus woesei, UniProt Q7LYT7); assay: biochemical; settings: 40 min, pH 5.5, read-out: enzyme activity measured in percent
Protocol: The influence of metal cations and EDTA on the activity of α-amylase from P. woesei was performed with enzyme which was partially purified by gelfiltration on a Supsrose 12 column (Pharmacia, Sweden), see Table 2. The fractions containing α-amylase were collected and concentrated 4-fold. 25 μl of enzyme (400 U/l) were added to 100 μl of sodium acetate buffer (50 mM, pH 5.5) containing 1% (w/v) starch. Metal cations, which were dissolved in sodium acetate buffer (100 mM, pH 5.5), were added in various concentrations. Incubation was conducted in a glycerin bath (100° C.) for 40 min. The reducing sugars were finally detected as described by Bergmeyer and Grassi (supra). The values represent the enzyme activity measured in percent.

[2] = target: extracellular α-amylase from Pyrococcus furiosus (partially purified) (Pyrococcus furiosus, UniProt Q8U3I9); settings: EDTA concentration not given
Chain of extracellular α-amylase from Pyrococcus furiosus (partially purified) (Q8U3I9 39-473): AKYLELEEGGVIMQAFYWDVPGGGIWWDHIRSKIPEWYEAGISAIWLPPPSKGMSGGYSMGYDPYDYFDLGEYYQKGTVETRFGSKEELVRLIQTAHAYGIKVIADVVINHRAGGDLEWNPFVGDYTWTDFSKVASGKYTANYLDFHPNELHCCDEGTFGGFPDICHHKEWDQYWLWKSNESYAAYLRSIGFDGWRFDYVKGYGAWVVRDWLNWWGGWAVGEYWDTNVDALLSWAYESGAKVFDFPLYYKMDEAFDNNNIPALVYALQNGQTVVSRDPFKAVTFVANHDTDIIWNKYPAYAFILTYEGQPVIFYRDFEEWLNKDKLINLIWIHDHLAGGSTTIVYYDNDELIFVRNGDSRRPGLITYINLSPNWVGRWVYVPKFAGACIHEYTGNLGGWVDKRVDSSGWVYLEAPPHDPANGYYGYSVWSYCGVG
Protocol: In order to conduct physiochemical investigations the extracellular amylase was partially purified by gelfiltration. All experiments were performed in the absence of metal ions and under aerobic conditions.

Chain of α-amylase from Pyrococcus woesei (partially purified) (Q7LYT7 26-460): as the sequence (Q8U3I9 39-473) above

Question: What does the source list for O=C(O)CN(CCN(CC(=O)O)CC(=O)O)CC(=O)O [EDTA]?
Answer: remaining activity at 1000 µM [1]: 95%; remaining activity at 2000 µM [1]: 85%; remaining activity at 5000 µM [1]: 60%; influence on amylase activity [2]: did not have any influence
